Reference: ChEMBL document CHEMBL1122086, “Comparison of the inhibition of Escherichia coli and Lactobacillus casei dihydrofolate reductase by 2,4-diamino-5-(substituted-benzyl)pyrimidines: quantitative structure-activity relationships, X-ray crystallography, and computer graphics in structure-activity analysis” (J Med Chem, 1982)

Assays:
[1] = biological target: Dihydrofolate reductase (Lactobacillus casei) (UniProt P00381); details: Lacticaseibacillus casei
Description: Inhibitory activity against dihydrofolate reductase (DHFR) from Lactobacillus casei (expressed as log 1/Kiapp)

[2] = biological target: T1, Dihydrofolate reductase (Escherichia coli) (UniProt P0ABQ4)
T1 sequence (whole entry): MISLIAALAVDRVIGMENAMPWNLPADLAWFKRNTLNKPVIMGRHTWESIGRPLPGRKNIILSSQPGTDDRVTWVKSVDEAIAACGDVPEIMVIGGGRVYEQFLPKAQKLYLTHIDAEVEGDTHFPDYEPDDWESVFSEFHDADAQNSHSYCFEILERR
Description: Inhibitory activity against dihydrofolate reductase (DHFR) from Escherichia coli (expressed as log 1/Kiapp)

Sequence of Dihydrofolate reductase (Lactobacillus casei) (P00381 whole entry): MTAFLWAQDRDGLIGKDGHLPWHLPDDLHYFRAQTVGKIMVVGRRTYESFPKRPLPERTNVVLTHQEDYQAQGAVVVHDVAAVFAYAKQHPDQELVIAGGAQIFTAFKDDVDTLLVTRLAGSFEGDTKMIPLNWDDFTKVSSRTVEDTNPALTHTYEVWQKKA

## NC(=O)COc1cccc(Cc2cnc(N)nc2N)c1
[1]
  Log 1/Ki app: 5.96

## Nc1ncc(Cc2ccc([N+](=O)[O-])cc2)c(N)n1
[2]
  Log 1/Ki app: 6.2
[1]
  Log 1/Ki app: 6

## CCCCOc1ccc(Cc2cnc(N)nc2N)cc1
[1]
  Log 1/Ki app: 6.37

## CC(=O)Nc1ccc(Cc2cnc(N)nc2N)cc1[N+](=O)[O-]
[2]
  Log 1/Ki app: 6.97
[1]
  Log 1/Ki app: 6

## CS(=O)(=O)Oc1cccc(Cc2cnc(N)nc2N)c1
[2]
  Log 1/Ki app: 6.92
[1]
  Log 1/Ki app: 5.92

## COCCOc1ccc(Cc2cnc(N)nc2N)cc1
[1]
  Log 1/Ki app: 6.05

## Cc1ccc(Cc2cnc(N)nc2N)cc1
[1]
  Log 1/Ki app: 5.83

## COCCOc1cccc(Cc2cnc(N)nc2N)c1
[1]
  Log 1/Ki app: 6.12

## Nc1ncc(Cc2cccc(Br)c2)c(N)n1
[1]
  Log 1/Ki app: 6.23

## Nc1ncc(Cc2ccc(Br)cc2)c(N)n1
[1]
  Log 1/Ki app: 6.21

## COCCOc1ccc(Cc2cnc(N)nc2N)cc1OCCOC
[1]
  Log 1/Ki app: 6.51

## Nc1ncc(Cc2ccc(Cl)cc2)c(N)n1
[1]
  Log 1/Ki app: 6.19

## COCc1cccc(Cc2cnc(N)nc2N)c1
[1]
  Log 1/Ki app: 5.64

## Nc1ncc(Cc2cc(O)cc(O)c2)c(N)n1
[1]
  Log 1/Ki app: 3.38

## Nc1ncc(Cc2cccc(CO)c2)c(N)n1
[1]
  Log 1/Ki app: 5.67

## Nc1ncc(Cc2cccc(O)c2)c(N)n1
[1]
  Log 1/Ki app: 5.82

## CCCCCCCOc1ccc(Cc2cnc(N)nc2N)cc1
[1]
  Log 1/Ki app: 5.36

## Cc1cccc(Cc2cnc(N)nc2N)c1
[1]
  Log 1/Ki app: 5.78

## COCCOc1c(OC)cc(Cc2cnc(N)nc2N)cc1OC
[1]
  Log 1/Ki app: 6.26

## Nc1ccc(Cc2cnc(N)nc2N)cc1
[1]
  Log 1/Ki app: 5.47

## Nc1ncc(Cc2ccc(OC(F)(F)F)cc2)c(N)n1
[2]
  Log 1/Ki app: 6.57
[1]
  Log 1/Ki app: 6.3

## Nc1ncc(Cc2ccc(F)cc2)c(N)n1
[1]
  Log 1/Ki app: 5.67

## COc1ccc(Cc2cnc(N)nc2N)cc1C(F)(F)F
[2]
  Log 1/Ki app: 7.69
[1]
  Log 1/Ki app: 7.3

## Nc1ncc(Cc2cc(CO)cc(CO)c2)c(N)n1
[1]
  Log 1/Ki app: 5.73

## Nc1ncc(Cc2ccccc2)c(N)n1
[1]
  Log 1/Ki app: 5.2

## Nc1ncc(Cc2cccc(C(F)(F)F)c2)c(N)n1
[1]
  Log 1/Ki app: 6.16

## Nc1ncc(Cc2ccc(O)c(O)c2)c(N)n1
[1]
  Log 1/Ki app: 5.84

## CCCCCCOc1ccc(Cc2cnc(N)nc2N)cc1
[1]
  Log 1/Ki app: 5.73

## Nc1ncc(Cc2cccc(I)c2)c(N)n1
[1]
  Log 1/Ki app: 6.67

## CN(C)c1ccc(Cc2cnc(N)nc2N)cc1
[1]
  Log 1/Ki app: 6.17

## Nc1ncc(Cc2cccc(Cl)c2)c(N)n1
[1]
  Log 1/Ki app: 5.9

## CC(=O)Nc1ccc(Cc2cnc(N)nc2N)cc1
[1]
  Log 1/Ki app: 6.05

## Nc1ncc(Cc2cccc(F)c2)c(N)n1
[1]
  Log 1/Ki app: 5.38

## COc1ccc(Cc2cnc(N)nc2N)cc1OC
[1]
  Log 1/Ki app: 6.92

## CCCCOCc1cccc(Cc2cnc(N)nc2N)c1
[1]
  Log 1/Ki app: 5.49
